Measurements: US11591369B2, “Alpha(v)beta(6) integrin-binding peptides and methods of use thereof” (priority 2018, dated 2023)
Where “and” joins values, the source holds several entries; their conditions need not be identical. Equal entries are not always repeated. Where two headings read alike, the source gives them in different places. Where a SMILES comes first, the peptide text is derived from it. Primed or numbered codes have the meaning given here. Where no end group is shown, it is not given here. The star is where a group is joined. (18F)FB = [18F] fluorobenzoyl group, O=C(c1ccc([18F])cc1)*; (18F)FB″ = [18F]fluorobenzoyl, O=C(c1ccc([18F])cc1)*; Benzoyl(4-F) = O=C(c1ccc(F)cc1)*; FB = fluorobenzoyl

Tests used:
[1] = test system: DX3puroβ6 (αvβ6+) cells; assay: [18F]-radiolabeled peptide cell binding and internalization, DX3puroβ6 (αvβ6+) cells; assay type: cell-based, human; conditions: for binding to DX3puroβ6 (αvβ6+) cells: % of total activity, 37° C.
[2] = 37° C., 1 hour, radio-HPLC
[3] = biological target: T1, αvβ6 integrin (Homo sapiens, UniProt P06756+P18564); assay: Competitive binding ELISA against biotinylated LAP (BtLAP), αvβ6 integrin; conditions: for fold drop in affinity for αvβ6: compared to T1
T1 construct: All purified integrins were purchased from R&D Systems (MN, USA); purchased R&D Systems (MN, USA)

[4] = Circular dichroism (CD) spectroscopy; assay type: physicochemical; conditions: for % Helical Content CD Buffer: 25 mM phosphate + 100 mM NaF; for % Helical Content CD Buffer + 30% TFE: buffer with 30% trifluoroethanol

T1 sequence (P06756 31-992 limits assumed): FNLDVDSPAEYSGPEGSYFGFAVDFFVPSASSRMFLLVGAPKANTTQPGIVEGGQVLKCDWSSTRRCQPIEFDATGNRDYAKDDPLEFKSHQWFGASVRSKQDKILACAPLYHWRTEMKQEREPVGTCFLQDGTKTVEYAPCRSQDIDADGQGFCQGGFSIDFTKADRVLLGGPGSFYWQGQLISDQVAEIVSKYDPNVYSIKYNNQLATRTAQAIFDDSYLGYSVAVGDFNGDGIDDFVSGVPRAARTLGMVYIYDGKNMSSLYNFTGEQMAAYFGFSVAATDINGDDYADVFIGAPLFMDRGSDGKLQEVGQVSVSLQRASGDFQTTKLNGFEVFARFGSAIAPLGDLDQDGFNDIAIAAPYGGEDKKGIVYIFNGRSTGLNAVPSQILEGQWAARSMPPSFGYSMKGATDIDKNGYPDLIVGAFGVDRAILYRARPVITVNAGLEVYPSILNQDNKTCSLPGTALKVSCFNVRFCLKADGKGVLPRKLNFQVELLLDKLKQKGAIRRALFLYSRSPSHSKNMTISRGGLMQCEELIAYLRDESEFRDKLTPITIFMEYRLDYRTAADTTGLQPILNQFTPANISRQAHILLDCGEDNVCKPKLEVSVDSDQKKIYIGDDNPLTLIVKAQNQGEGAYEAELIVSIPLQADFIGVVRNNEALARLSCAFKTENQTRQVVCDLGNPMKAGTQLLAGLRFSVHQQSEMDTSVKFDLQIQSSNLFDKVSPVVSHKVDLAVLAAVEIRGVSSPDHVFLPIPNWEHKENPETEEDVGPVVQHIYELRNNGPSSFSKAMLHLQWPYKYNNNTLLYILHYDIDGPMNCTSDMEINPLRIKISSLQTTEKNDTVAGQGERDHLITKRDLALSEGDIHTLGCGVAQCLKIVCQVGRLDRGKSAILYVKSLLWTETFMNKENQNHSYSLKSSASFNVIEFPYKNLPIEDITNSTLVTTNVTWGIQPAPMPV
T1 sequence (P18564 22-707 limits assumed): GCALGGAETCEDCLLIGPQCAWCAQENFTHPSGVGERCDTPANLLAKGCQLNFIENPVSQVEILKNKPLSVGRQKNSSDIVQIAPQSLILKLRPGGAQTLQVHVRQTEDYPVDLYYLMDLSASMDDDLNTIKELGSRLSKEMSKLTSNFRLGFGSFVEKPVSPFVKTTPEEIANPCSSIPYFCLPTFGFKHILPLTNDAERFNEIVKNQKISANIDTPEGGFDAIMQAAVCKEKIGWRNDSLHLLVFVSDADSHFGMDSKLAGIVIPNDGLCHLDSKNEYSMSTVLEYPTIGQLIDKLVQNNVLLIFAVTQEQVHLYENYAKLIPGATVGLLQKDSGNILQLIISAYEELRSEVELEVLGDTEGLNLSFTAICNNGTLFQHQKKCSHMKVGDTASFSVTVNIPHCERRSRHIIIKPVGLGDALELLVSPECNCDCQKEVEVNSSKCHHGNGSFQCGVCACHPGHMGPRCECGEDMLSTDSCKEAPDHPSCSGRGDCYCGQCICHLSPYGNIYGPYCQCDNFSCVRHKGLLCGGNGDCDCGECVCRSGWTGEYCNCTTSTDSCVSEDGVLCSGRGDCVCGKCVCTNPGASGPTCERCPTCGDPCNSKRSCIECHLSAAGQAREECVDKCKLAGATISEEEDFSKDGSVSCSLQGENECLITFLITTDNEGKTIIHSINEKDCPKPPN

CC(C)C[C@H](NC(=O)[C@H](Cc1ccc(O)cc1)NC(=O)[C@@H](NC(=O)[C@H](CC(C)C)NC(=O)[C@H](CC(=O)O)NC(=O)CNC(=O)[C@@H](NC(=O)CCOCCOCCOCCOCCOCCOCCOCCOCCOCCOCCOCCOCCOCCOCCOCCOCCOCCOCCOCCOCCOCCOCCOCCOCCOCCOCCOCCOCCNC(=O)c1ccc(F)cc1)C(C)C)[C@@H](C)O)C(=O)N[C@@H](CCCCN)C(=O)N[C@@H](CCC(N)=O)C(=O)N[C@@H](CCCCN)C(=O)N[C@H](C(=O)N[C@@H](C)C(=O)N[C@@H](CCCNC(=N)N)C(=O)N[C@H](C(=O)NCCOCCOCCOCCOCCOCCOCCOCCOCCOCCOCCOCCOCCOCCOCCOCCOCCOCCOCCOCCOCCOCCOCCOCCOCCOCCOCCOCCOCCC(N)=O)[C@@H](C)O)C(C)C [N-[^18F]T1-e]
percent internalized relative to the amount bound to DX3puroβ6 (αvβ6+) cells ([1]; 1 hour): 25.7±2.2% and 25.7±2.7% | binding to DX3puroβ6 (αvβ6+) cells ([1]; 1 hour): 1.5±0.1% | intact peptide in mouse serum [2]: > 99% | intact peptide in mouse serum ([2]; 60 min): 100%

CC(C)C[C@H](NC(=O)[C@H](CO)NC(=O)[C@H](CC(=O)O)NC(=O)[C@H](CC(C)C)NC(=O)[C@H](CC(=O)O)NC(=O)[C@@H](NC(=O)[C@H](CCCNC(=N)N)NC(=O)c1ccc(F)cc1)[C@@H](C)O)C(=O)N[C@@H](CCCNC(=N)N)C(=O)N[C@H](C(N)=O)[C@@H](C)O [RTD-9mer, reference compound]
DX3puroβ6 (αvβ6+)/DX3puro (αvβ6−) selectivity ratio ([1]; cell binding, 1 hour): 1.7±0.2 :1 | IC50 [3]: 0.022 ± 0.003 µM | % Helical Content CD Buffer [4]: 2.7% | % Helical Content CD Buffer + 30% TFE [4]: 2.1%

CC(C)C[C@H](NC(=O)[C@H](CO)NC(=O)[C@H](CC(=O)O)NC(=O)[C@H](CC(C)C)NC(=O)[C@H](CC(=O)O)NC(=O)[C@@H](NC(=O)[C@H](CCCNC(=N)N)NC(=O)c1ccc(F)cc1)[C@@H](C)O)C(=O)N[C@@H](CCCNC(=N)N)C(=O)N[C@@H](CCC(N)=O)C(=O)N[C@@H](CCCCN)C(=O)N[C@H](C(=O)N[C@@H](C)C(=O)N[C@@H](CCCNC(=N)N)C(=O)N[C@H](C(N)=O)[C@@H](C)O)C(C)C [RTD-14mer] ({Benzoyl(4-F)}-RTDLDSLRQKVART-NH2)
DX3puroβ6 (αvβ6+)/DX3puro (αvβ6−) selectivity ratio [1]: 9.1±0.8 :1 | IC50 [3]: 0.0004 ± 0.0001 µM | % Helical Content CD Buffer [4]: 18.1% | % Helical Content CD Buffer + 30% TFE [4]: 26.2%

CC(C)C[C@H](NC(=O)[C@H](CCCNC(=N)N)NC(=O)CNC(=O)[C@H](CC(C)C)NC(=O)[C@H](CC(=O)O)NC(=O)CNC(=O)[C@H](CCCNC(=N)N)NC(=O)CNC(=O)c1ccc(F)cc1)C(N)=O [SFLAP3-8mer, reference compound] ({Benzoyl(4-F)}-GRGDLGRL-NH2)
DX3puroβ6 (αvβ6+)/DX3puro (αvβ6−) selectivity ratio ([1]; cell binding, 1 hour): 1.4 ± 0.2:1 | IC50 [3]: 0.089 ± 0.0065 µM | % Helical Content CD Buffer [4]: 11% | % Helical Content CD Buffer + 30% TFE [4]: 6.2%

CC(C)C[C@H](NC(=O)[C@H](CC(=O)O)NC(=O)CNC(=O)[C@H](CCCNC(=N)N)NC(=O)CNC(=O)c1ccc(F)cc1)C(=O)NCC(=O)N[C@@H](CCCNC(=N)N)C(=O)N[C@@H](CC(C)C)C(=O)N[C@@H](C)C(=O)N[C@@H](CCC(N)=O)C(=O)N[C@@H](CCCCN)C(=O)N[C@H](C(=O)N[C@@H](C)C(=O)N[C@@H](CCCNC(=N)N)C(=O)N[C@H](C(N)=O)[C@@H](C)O)C(C)C [SFLAP3-15mer] ({Benzoyl(4-F)}-GRGDLGRLAQKVART-NH2)
DX3puroβ6 (αvβ6+)/DX3puro (αvβ6−) selectivity ratio ([1]; cell binding, 1 hour): 3.9 ± 0.4:1 | IC50 [3]: 0.0013 ± 0.0002 µM | % Helical Content CD Buffer [4]: 13.4% | % Helical Content CD Buffer + 30% TFE [4]: 31.6%

CC(C)C[C@H](NC(=O)[C@H](Cc1ccc(O)cc1)NC(=O)[C@@H](NC(=O)[C@H](CC(C)C)NC(=O)[C@H](CC(=O)O)NC(=O)CNC(=O)[C@@H](NC(=O)COCCOCCNC(=O)c1ccc(F)cc1)C(C)C)[C@@H](C)O)C(=O)N[C@@H](CCCCN)C(=O)N[C@@H](CCC(N)=O)C(=O)N[C@@H](CCCCN)C(=O)N[C@H](C(=O)N[C@@H](C)C(=O)N[C@@H](CCCNC(=N)N)C(=O)N[C@H](C(=O)NCCOCCOCCOCCOCCOCCOCCOCCOCCOCCOCCOCCOCCOCCOCCOCCOCCOCCOCCOCCOCCOCCOCCOCCOCCOCCOCCOCCOCCC(N)=O)[C@@H](C)O)C(C)C [T1-a]
fold drop in affinity for αvβ6 [3]: 24 fold

CC(C)C[C@H](NC(=O)[C@H](Cc1ccc(O)cc1)NC(=O)[C@@H](NC(=O)[C@H](CC(C)C)NC(=O)[C@H](CC(=O)O)NC(=O)CNC(=O)[C@@H](NC(=O)CCOCCOCCOCCOCCNC(=O)c1ccc(F)cc1)C(C)C)[C@@H](C)O)C(=O)N[C@@H](CCCCN)C(=O)N[C@@H](CCC(N)=O)C(=O)N[C@@H](CCCCN)C(=O)N[C@H](C(=O)N[C@@H](C)C(=O)N[C@@H](CCCNC(=N)N)C(=O)N[C@H](C(=O)NCCOCCOCCOCCOCCOCCOCCOCCOCCOCCOCCOCCOCCOCCOCCOCCOCCOCCOCCOCCOCCOCCOCCOCCOCCOCCOCCOCCOCCC(N)=O)[C@@H](C)O)C(C)C [T1-b]
fold drop in affinity for αvβ6 [3]: 13 fold

CC(C)C[C@H](NC(=O)[C@H](Cc1ccc(O)cc1)NC(=O)[C@@H](NC(=O)[C@H](CC(C)C)NC(=O)[C@H](CC(=O)O)NC(=O)CNC(=O)[C@@H](NC(=O)CCOCCOCCOCCOCCOCCOCCOCCOCCNC(=O)c1ccc(F)cc1)C(C)C)[C@@H](C)O)C(=O)N[C@@H](CCCCN)C(=O)N[C@@H](CCC(N)=O)C(=O)N[C@@H](CCCCN)C(=O)N[C@H](C(=O)N[C@@H](C)C(=O)N[C@@H](CCCNC(=N)N)C(=O)N[C@H](C(=O)NCCOCCOCCOCCOCCOCCOCCOCCOCCOCCOCCOCCOCCOCCOCCOCCOCCOCCOCCOCCOCCOCCOCCOCCOCCOCCOCCOCCOCCC(N)=O)[C@@H](C)O)C(C)C [T1-c]
fold drop in affinity for αvβ6 [3]: 50 fold

CC(C)C[C@H](NC(=O)[C@H](Cc1ccc(O)cc1)NC(=O)[C@@H](NC(=O)[C@H](CC(C)C)NC(=O)[C@H](CC(=O)O)NC(=O)CNC(=O)[C@@H](NC(=O)CCOCCOCCOCCOCCOCCOCCOCCOCCOCCOCCOCCOCCNC(=O)c1ccc(F)cc1)C(C)C)[C@@H](C)O)C(=O)N[C@@H](CCCCN)C(=O)N[C@@H](CCC(N)=O)C(=O)N[C@@H](CCCCN)C(=O)N[C@H](C(=O)N[C@@H](C)C(=O)N[C@@H](CCCNC(=N)N)C(=O)N[C@H](C(=O)NCCOCCOCCOCCOCCOCCOCCOCCOCCOCCOCCOCCOCCOCCOCCOCCOCCOCCOCCOCCOCCOCCOCCOCCOCCOCCOCCOCCOCCC(N)=O)[C@@H](C)O)C(C)C [T1-d]
fold drop in affinity for αvβ6 [3]: 9 fold

CC(C)C[C@H](NC(=O)[C@H](Cc1ccc(O)cc1)NC(=O)[C@@H](NC(=O)[C@H](CC(C)C)NC(=O)[C@H](CC(=O)O)NC(=O)CNC(=O)[C@@H](NC(=O)CCOCCOCCOCCOCCOCCOCCOCCOCCOCCOCCOCCOCCOCCOCCOCCOCCOCCOCCOCCOCCOCCOCCOCCOCCOCCOCCOCCOCCNC(=O)c1ccc(F)cc1)C(C)C)[C@@H](C)O)C(=O)N[C@@H](CCCCN)C(=O)N[C@@H](CCC(N)=O)C(=O)N[C@@H](CCCCN)C(=O)N[C@H](C(=O)N[C@@H](C)C(=O)N[C@@H](CCCNC(=N)N)C(=O)N[C@H](C(=O)NCCOCCOCCOCCOCCOCCOCCOCCOCCOCCOCCOCCOCCOCCOCCOCCOCCOCCOCCOCCOCCOCCOCCOCCOCCOCCOCCOCCOCCC(N)=O)[C@@H](C)O)C(C)C [T1-e]
fold drop in affinity for αvβ6 [3]: 39 fold

CC(C)C[C@H](NC(=O)[C@H](Cc1ccc(O)cc1)NC(=O)[C@@H](NC(=O)[C@H](CC(C)C)NC(=O)[C@H](CC(=O)O)NC(=O)CNC(=O)[C@@H](NC(=O)c1ccc(CNC(=O)CCOCCOCCOCCOCCOCCOCCOCCOCCOCCOCCOCCOCCOCCOCCOCCOCCOCCOCCOCCOCCOCCOCCOCCOCCOCCOCCOCCOCCNC(=O)c2ccc(F)cc2)cc1)C(C)C)[C@@H](C)O)C(=O)N[C@@H](CCCCN)C(=O)N[C@@H](CCC(N)=O)C(=O)N[C@@H](CCCCN)C(=O)N[C@H](C(=O)N[C@@H](C)C(=O)N[C@@H](CCCNC(=N)N)C(=O)N[C@H](C(=O)NCCOCCOCCOCCOCCOCCOCCOCCOCCOCCOCCOCCOCCOCCOCCOCCOCCOCCOCCOCCOCCOCCOCCOCCOCCOCCOCCOCCOCCC(N)=O)[C@@H](C)O)C(C)C [T1-g]
fold higher binding to αvβ6-integrin ([3]; ELISA, compared to T1-e): 2 fold

CC(C)C[C@H](NC(=O)[C@H](Cc1ccc(O)cc1)NC(=O)[C@@H](NC(=O)[C@H](CC(C)C)NC(=O)[C@H](CC(=O)O)NC(=O)CNC(=O)[C@@H](NC(=O)c1ccc(F)cc1)C(C)C)[C@@H](C)O)C(=O)N[C@@H](CCCCN)C(=O)N[C@@H](CCC(N)=O)C(=O)N[C@@H](CCCCN)C(=O)N[C@H](C(=O)N[C@@H](C)C(=O)N[C@@H](CCCNC(=N)N)C(=O)N[C@H](C(=O)NCCOCCOCCOCCOCCOCCOCCOCCOCCOCCOCCOCCOCCOCCOCCOCCOCCOCCOCCOCCOCCOCCOCCOCCOCCOCCOCCOCCOCCC(N)=O)[C@@H](C)O)C(C)C [T1]
DX3puroβ6 (αvβ6+)/DX3puro (αvβ6−) selectivity ratio [1]: 41.7±5.3 :1 | binding to DX3puroβ6 (αvβ6+) cells ([1]; 1 hour): 18.1±0.8% | intact peptide in mouse serum [2]: 61%

FB-RGDLQVLA ({FB}-RGDLQVLA) [A20-8mer, reference compound]
DX3puroβ6 (αvβ6+)/DX3puro (αvβ6−) selectivity ratio ([1]; cell binding, 1 hour): 7.8±0.5 :1 | % Helical Content CD Buffer [4]: 6.7% | % Helical Content CD Buffer + 30% TFE [4]: 6.9%

FB-RGDLQVLAQKVART [A20-14mer, reference compound]
DX3puroβ6 (αvβ6+)/DX3puro (αvβ6−) selectivity ratio ([1]; cell binding, 1 hour): 8.4±0.4 :1 | % Helical Content CD Buffer [4]: 15.1% | % Helical Content CD Buffer + 30% TFE [4]: 35.7%

[^18F]FB-RSDLTPLF ({(18F)FB}-RSDLTPLF) [N-[^18F]KL3]
percent internalized relative to the amount bound to DX3puroβ6 (αvβ6+) cells ([1]; 1 hour): 23.5±4.7% | binding to DX3puroβ6 (αvβ6+) cells ([1]; 1 hour): 0.7±0.2%

[^18F]FB-RSDLTPLFQKVART ({(18F)FB″}-RSDLTPLFQKVART) [N-[^18F]KL3Q]
percent internalized relative to the amount bound to DX3puroβ6 (αvβ6+) cells ([1]; 1 hour): 22.8±1.3% | binding to DX3puroβ6 (αvβ6+) cells ([1]; 1 hour): 1.3±0.1% | fold increase in cell binding ([1]; compared to N-[18F]KL3): 2 fold

[^18F]FB-VGDLTYLKKKVART ({(18F)FB″}-VGDLTYLKKKVART) [N-[^18F]P1K-b]
binding to DX3puroβ6 (αvβ6+) cells ([1]; 1 hour): 7.9±0.7%

[^18F]FB-VGDLTYLKQKVART ({(18F)FB″}-VGDLTYLKQKVART) [N-[^18F]P1Q]
percent internalized relative to the amount bound to DX3puroβ6 (αvβ6+) cells ([1]; 1 hour): 10.2±1.2% | binding to DX3puroβ6 (αvβ6+) cells ([1]; 1 hour): 5.6±0.2% and 2.1±0.2% and 5.6%

[^18F]FB-VGDLTYLKRKATVQ ({(18F)FB″}-VGDLTYLKRKATVQ) [N-[^18F]P1Q-Scrb]
DX3puroβ6 (αvβ6+)/DX3puro (αvβ6−) selectivity ratio [1]: 1.7±0.06 :1 | binding to DX3puroβ6 (αvβ6+) cells ([1]; 1 hour): 2.1±0.2%
